Data: patent publication US20240317746A1, “CRYSTALLINE FORMS OF AN AZETIDINE PARP1 INHIBITOR” (XinThera, Inc., priority 2023, published 2024)
≈ marks a conversion by molar mass, not a printed value. Where two headings read alike, the source gives them in different places.

What was measured:
[1] = Preliminary solubility test: estimated solubility at RT by visual observation; assay type: physicochemical
Protocol: The solubility of Compound 1 (starting material) was estimated at RT in 18 single solvents and 6 solvent mixtures by visual observation. Approximately 5 mg solids were weighed into 8 mL glass vial, and then solvent was added stepwise until solids were dissolved completely or a total of solvent volume reached 5 mL. […] The solubility was estimated and for reference only.

[2] = Polymorph screening (slurry conversion, cooling, evaporation, anti-solvent, cyclic heating-cooling, salt break); settings: about 20 mg in 1 mL
Protocol: Form I was obtained from most polymorph screening experiments. […]
Cyclic heating-cooling experiments were carried out in Crystal 16 Parallel Crystallizer. About 20 mg of Compound 1 (starting material) was added into 1 mL solvents, and a heating-cooling program was performed: • 1. Equilibrated first at 20° C., and heated to 75 or 100° C. at 0.2° C./min (the elevated temperature is set according to boiling point of solvent). • 2. Held at 75 or 100° C. for 1 h. • 3. Cooled to 20° C. at 0.2° C./min and hold for 1 h. • 4. Repeated the above procedures once.
Turbidimeter from Crystal 16 recorded if solids were completely dissolved during heating. Form I was obtained in most solvent systems. […]

solubility ([1]; DCM/MeOH (1/1), organic solvent or mixture, thermodynamic from solid, DCM/MeOH (1/1), read-out: Solubility): 5000 to 20000 µg/mL (≈ 11.4 to 45.5 mM) | solubility ([1]; DCM/MeOH (4/1), listed as Compound 1 (starting material)): 50~100 mg/mL | solubility ([1]; DMSO, DMF, DMAc (each), organic solvent or mixture, thermodynamic from solid, DMSO, DMF, DMAc, read-out: Solubility): 20000 to 50000 µg/mL (≈ 45.5 to 114 mM) | solubility ([1]; organic solvent or mixture, thermodynamic from solid, Acetone/Water (9/1), ACN/Water (9/1), MeOH/Water (9/1), Acetone/EtOH (1/1), THF, MeOH, read-out: Solubility): 1000 to 5000 µg/mL (≈ 2.27 to 11.4 mM) | solubility ([1]; water, thermodynamic from solid, EtOH, IPA, Acetone, EtOAc, ACN, Water, DCM, 2-MeTHF, Toluene, MTBE, MEK, Heptane, read-out: Solubility): < 1000 µg/mL | Hot Dissolution ([2]; 2-MeTHF, 75° C.): Yes | Hot Dissolution ([2]; ACN/Water (9/1), 75° C.): No | Hot Dissolution ([2]; DMAc/Toluene (1/2), 100° C.): Yes | Hot Dissolution ([2]; EtOH, 75° C.): Yes | Hot Dissolution ([2]; MEK, 75° C.): No | Hot Dissolution ([2]; MIBK, 100° C.): No | Hot Dissolution ([2]; n-Butanol/Anisole (1/1), 100° C.): Yes
SMILES: C[C@@H]1[C@@H](Oc2ccc(C(=O)NC3CC3)nc2)CN1Cc1cnc2cc(Cl)c(=O)[nH]c2c1 [Compound 1, 5-(((2R,3S)-1-((7-chloro-6-oxo-5,6-dihydro-1,5-naphthyridin-3-yl)methyl)-2-methylazetidin-3-yl)oxy)-N-cyclopropylpicolinamide]
